Measured values: patent publication US11311485B2, “Self-assembled particles for targeted delivery of immunomodulators to treat autoimmunity and cancer” (UNIVERSITY OF MARYLAND, BALTIMORE COUNTY, priority 2018, dated 2022)

Experiment: Loading capacity of filomicelles (PEG PPS) with other immunosuppressives used in lupus
Format: physicochemical
Settings: drug per mg of filomicelles, FIG. 10
Excerpt: Transmission electron microscopy (TEM) images of loaded and unloaded FMs show no difference in morphology or structure, as shown in FIG. 3.

In the case of `Cn1cnc([N+](=O)[O-])c1Sc1ncnc2nc[nH]c12` [AZA, azathioprine], the “loading into filomicelles (PEG-PPS)” value is reported as about 400 µg/mg.
